Data set [1] deals with Mast/stem cell growth factor receptor Kit (Homo sapiens) (UniProt P10721). The experiment in a line: Binding affinity to human KIT at 1 uM by KINOMEscan analysis.
Another data set is filed under the species Homo sapiens. Put plainly: Binding affinity to human PDGFR at 1 uM by KINOMEscan analysis.
The nature of data set [2]: Stability in mouse hepatocytes. Type of data set: ADME, cell-based, Hepatocyte.
The nature of data set [3]: Stability in human hepatocytes. Type of data set: ADME, cell-based, Hepatocyte.
The next data set in a line: in vitro. Conditions: dog, MDCK-MDR1.

The source made the active and inactive calls. No cut-off for these calls is given here.

Sequence of Mast/stem cell growth factor receptor Kit (Homo sapiens) (P10721 whole entry): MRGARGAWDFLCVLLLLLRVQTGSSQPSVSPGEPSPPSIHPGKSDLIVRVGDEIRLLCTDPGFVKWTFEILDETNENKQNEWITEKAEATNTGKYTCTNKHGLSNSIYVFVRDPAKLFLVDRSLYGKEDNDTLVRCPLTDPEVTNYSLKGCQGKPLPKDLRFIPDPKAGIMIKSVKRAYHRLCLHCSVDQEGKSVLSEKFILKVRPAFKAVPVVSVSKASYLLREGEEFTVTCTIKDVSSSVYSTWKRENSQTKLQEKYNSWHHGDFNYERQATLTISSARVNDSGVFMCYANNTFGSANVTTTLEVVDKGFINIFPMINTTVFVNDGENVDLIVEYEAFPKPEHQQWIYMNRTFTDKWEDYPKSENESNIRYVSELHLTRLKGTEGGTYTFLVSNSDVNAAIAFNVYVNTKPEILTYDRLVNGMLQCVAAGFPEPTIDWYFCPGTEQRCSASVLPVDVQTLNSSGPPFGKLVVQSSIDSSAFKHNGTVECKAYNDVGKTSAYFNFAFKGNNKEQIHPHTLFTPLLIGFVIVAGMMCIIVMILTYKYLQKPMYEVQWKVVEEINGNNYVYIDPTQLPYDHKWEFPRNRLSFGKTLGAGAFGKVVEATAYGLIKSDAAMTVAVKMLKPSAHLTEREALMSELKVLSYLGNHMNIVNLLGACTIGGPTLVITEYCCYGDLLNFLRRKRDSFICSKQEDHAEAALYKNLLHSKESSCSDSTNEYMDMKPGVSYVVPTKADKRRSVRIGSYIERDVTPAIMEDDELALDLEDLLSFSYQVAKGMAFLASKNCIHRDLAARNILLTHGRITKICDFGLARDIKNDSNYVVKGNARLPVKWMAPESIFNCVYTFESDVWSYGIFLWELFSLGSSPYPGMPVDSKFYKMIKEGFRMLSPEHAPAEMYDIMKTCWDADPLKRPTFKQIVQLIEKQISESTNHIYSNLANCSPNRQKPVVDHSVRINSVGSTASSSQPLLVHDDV

Consider `COc1cc2c(Nc3ccc(Cl)c(OC)n3)c(C#N)cnc2cc1OCCON1CCN(C)CC1`, for which the inhibition result (in data set [1]; in the data set filed under Homo sapiens) was “inactive” throughout. Moreover, the Stability entry in data set [2] and in data set [3] was “Stable” in each case.
As for `COc1cc2ncnc(Nc3cccc(Cl)c3F)c2cc1OCCON1CCN(C)CC1`, the efflux ratio in “in vitro” worked out at 0.9.

For orientation: efflux ratio means the permeability from basolateral to apical divided by that in the opposite direction, in the common usage.

For the origin of these results see ChEMBL document CHEMBL6120955, “Computationally Driven Discovery of a BCR-ABL1 Kinase Inhibitor with Activity in Multidrug-Resistant Chronic Myeloid Leukemia” (J Med Chem, 2024).
